Reference: patent US20240251785A1, “SMALL MOLECULE ANTAGONISTS AND AGONISTS OF ARTHROPOD KININ RECEPTORS FOR PEST CONTROL” (The Texas A&M University System, priority 2021, published 2024)
Like-named read-outs stand apart in the source and are kept apart here.

Legend:
[1] = test system: R. microplus kinin receptor; test: High-throughput dual-addition calcium fluorescence screen on BMLK3 cells; assay type: cell-based, Rhipicephalus microplus; settings: for antagonist Io (%): compound 2 μmol L^−1, 5 min, then FFFSWGa 500 nmol L^−1; for agonist NPA (%): compound 2 μmol L^−1, first addition, relative to FFFSWGa 500 nmol L^−1
[2] = biological target: recombinant tick kinin receptor (BMLK3) (Rhipicephalus microplus, UniProt Q9NHA4); test: Dose-response dual-addition calcium fluorescence assay on BMLK3 cells; assay type: cell-based; settings: for inhibition at 12 µM: read-out: Inhibitory Efficacy at 12 μM; for activity type in dose-response assay, in words: Rhimi-K-1 1 μmol L^−1; for validation mark in dose-response assay: Table 3
Sequence of recombinant tick kinin receptor (BMLK3) (Q9NHA4 entry or part of it): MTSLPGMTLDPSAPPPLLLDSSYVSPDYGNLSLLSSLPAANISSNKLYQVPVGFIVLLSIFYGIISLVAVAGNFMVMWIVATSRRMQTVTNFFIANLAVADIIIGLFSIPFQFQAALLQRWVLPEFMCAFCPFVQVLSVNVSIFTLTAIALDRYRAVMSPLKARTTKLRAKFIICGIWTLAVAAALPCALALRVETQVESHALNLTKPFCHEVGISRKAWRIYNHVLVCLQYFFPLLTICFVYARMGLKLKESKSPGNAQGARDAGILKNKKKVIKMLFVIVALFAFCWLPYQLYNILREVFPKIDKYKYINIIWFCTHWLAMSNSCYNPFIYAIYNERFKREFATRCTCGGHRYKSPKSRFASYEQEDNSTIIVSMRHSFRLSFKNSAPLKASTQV

[3] = test system: vector-only (V/O) CHO-K1 cells; test: Dose-response dual-addition calcium fluorescence assay on vector-only cells; assay type: cell-based
[4] = test system: Human dermal fibroblasts (HDF) cells; test: Cytotoxicity assay (resazurin); assay type: cell-based
[5] = first addition, 20 concentrations 28 nM-25 μM, read-out: BMLK3 EC50
[6] = second addition Rhimi-K-1 1 μmol L^−1, read-out: BMLK3 IC50
[7] = summary of 36 validated antagonist hits, BMLK3 cells, read-out: BMLK3 EC50
[8] = summary of 36 validated antagonist hits, BMLK3 cells, read-out: BMLK3 IC50
[9] = V/O cells, second addition Rhimi-K-1 1 μmol L^−1, read-out: V/O antagonist IC50
[10] = summary of 36 validated antagonist hits, vector-only cell (V/O)
[11] = Human dermal fibroblasts cells, tested at 20 μcool L^−1
[12] = Cricetulus griseus, CHO-K1, summary of 36 validated antagonist hits, vector-only cell (V/O)
[13] = virtual hit molecules, dual-addition assay, recombinant tick kinin receptor (BMLK3) cells, read-out: BMLK3 EC50
[14] = virtual hit molecules, dual-addition assay, recombinant tick kinin receptor (BMLK3) cells, read-out: BMLK3 antagonist IC50
[15] = virtual hit molecules, dual-addition assay, vector-only cell (V/O)
[16] = virtual hit molecules, dual-addition assay, vector-only cell (V/O), read-out: V/O antagonist IC50
[17] = Table 5 analogs, first addition, read-out: BMLK3 EC50
[18] = Table 5 analogs, second addition Rhimi-K-1 1 μmol L^−1, read-out: BMLK3 antagonist IC50
[19] = Table 5 analogs, V/O cells, read-out: V/O antagonist IC50

| Structure (SMILES) | Inhibitory Efficacy at 12 μM ([2]; 12 μM, BMLK3 cells) [%] | EC50 [2, 5] [µM] | IC50 [2, 6] [µM] | EC50 [2, 7] [µM] | IC50 [2, 8] [µM] | EC50 ([3]; V/O cells, first addition) [µM] | IC50 [3, 9] [µM] | EC50 [3, 10] [µM] | IC50 [3, 10] [µM] | HDF average % growth inhibition [4, 11] [%] | other results |
| --- | --- | --- | --- | --- | --- | --- | --- | --- | --- | --- | --- |
| C[C@@](O)(C#Cc1ccccc1)c1ccc(N2CCCCC2)c(F)c1 [SACC-0006795] | 33.05 | > 25 | 17.3 | > 25 | 17.3 | < 0.0285 | > 25 | < 0.0285 | > 25 | −1.773 | antagonist Io (%) [1]: 55% |
| C/N=c1\[nH]c2cc([N+](=O)[O-])c([N+](=O)[O-])cc2[nH]\c1=N\C [SACC-0010666] |  |  |  |  |  |  |  |  |  |  | EC50 [2]: 0.914 µM; IC50 [2]: 0.808 µM; inhibition at 12 µM [2]: 4.47%; EC50 ([3]; Cricetulus griseus, CHO-K1, V/O cells, first addition): 1.35 µM; IC50 ([3]; Cricetulus griseus, CHO-K1, V/O cells, second addition Rhimi-K-1 1 μmol L^−1, read-out: V/O antagonist IC50): 14.9 µM; IC50 [3, 12]: 14.9 µM; HDF average % growth inhibition ([4]; human, 48 h, 20 μmol L^−1): −4.62% |
| C/C(CCC(C)C)=N\N=C(/S)NCc1ccccc1 [SACC-0018618] | 55.77 | > 25 | 4.29 | > 25 | 4.29 | > 25 | > 25 | > 25 | > 25 | 7.327 | antagonist Io (%) [1]: 58%; activity type in dose-response assay, in words ([2]; BMLK3 cells): full agonist |
| Cc1ccc(S(=O)(=O)Nc2ccc3nc(N)sc3c2)cc1 [SACC-0034373] | 26.16 |  |  | 1.96 | 6.22 |  |  | 2.49 | > 25 | −7 | EC50 [2, 13]: 1.96 µM; IC50 [2, 14]: 6.22 µM; EC50 [3, 15]: 2.49 µM; IC50 [3, 16]: > 25 µM |
| Cc1csc2ncnc(NCCc3ccc(Cl)cc3)c12 [SACC-0039590] | 69.87 |  |  |  |  |  |  | 1.63 | 5.58 | −13.23 | EC50 [3, 15]: 1.63 µM; IC50 [3, 16]: 5.58 µM |
| CCCCCCCCn1c2c(c(=N)c3c1CCC3)CCCC2 [SACC-0050177] | 35.48 | 7.08 | > 25 | 7.08 | > 25 | > 25 | 12.3 | > 25 | 12.3 | 38.55 |  |
| CCN1C=C/C(=C\C=C\c2cc[n+](CC)c3ccccc23)c2ccccc21 [SACC-0054132] | 37.34 |  |  | < 0.0285 | 3.69 |  |  | 2.56 | 0.207 | 9.037 | EC50 [2, 13]: < 0.0285 µM; IC50 [2, 14]: 3.69 µM; EC50 [3, 15]: 2.56 µM; IC50 [3, 16]: 0.207 µM |
| COc1ccc(S(=O)(=O)Nc2ccc(O)c(Sc3nc4ccccc4s3)c2)cc1 [SACC-0089495] |  |  |  |  |  |  |  |  |  | −2.817 | inhibition at 12 µM ([2]; 12 μM, BMLK3 cells): 71.3%; EC50 [2, 13]: 3.04 µM; IC50 [2, 14]: 6.53 µM; IC50 [3, 12]: 5.99 µM; EC50 ([3]; Cricetulus griseus, CHO-K1, virtual hit molecules, dual-addition assay, vector-only cell (V/O)): 9.06 µM; IC50 ([3]; Cricetulus griseus, CHO-K1, virtual hit molecules, dual-addition assay, vector-only cell (V/O), read-out: V/O antagonist IC50): 5.99 µM |
| CSc1nc2ccc(NS(=O)(=O)c3ccc(Cl)s3)cc2s1 [SACC-0099442] | 71.31 |  |  | 5.4 | 7.17 |  |  | 10.8 | 1.12 | −1.16 | activity type in dose-response assay, in words ([2]; BMLK3 cells): full agonist; EC50 [2, 13]: 5.4 µM; IC50 [2, 14]: 7.17 µM; EC50 [3, 15]: 10.8 µM; IC50 [3, 16]: 1.12 µM |
| NC(N)=N/C(N)=N\c1ccc(Br)cc1 [SACC-0108986] |  | 0.684 | 0.363 |  |  | 0.132 | 3.87 |  |  |  | antagonist Io (%) [1]: 53%; validation mark in dose-response assay [2]: *** (molecules which are either off-target or of low activity (<25 μM)) |
| O=C(CCc1nc(-c2cccs2)no1)Nc1ccc(-n2cnc3ccccc32)nc1 [SACC-0114394] |  | 12 | 10.9 |  |  | 4.19 | 4.32 |  |  |  | agonist NPA (%) [1]: 152%; validation mark in dose-response assay [2]: *** (molecules which are either off-target or of low activity (<25 μM)) |
| O=C(Cn1cnc2ccccc21)NCc1ccc(OCc2ccccc2)cc1 [SACC-0115325] |  | 0.299 | > 25 |  |  | > 25 | > 25 |  |  |  | antagonist Io (%) [1]: 83%; validation mark in dose-response assay [2]: *** (molecules which are either off-target or of low activity (<25 μM)) |
| O=C(NC(=S)NNC(=O)c1cc(-c2ccccc2)nc2ccccc12)c1cccs1 [SACC-0117741] |  | 1.74 | < 0.0285 |  |  | 1.89 | 1.49 |  |  |  | agonist NPA (%) [1]: 127%; validation mark in dose-response assay [2]: *** (molecules which are either off-target or of low activity (<25 μM)) |
| O=C1C=CC(Nc2ccc([N+](=O)[O-])cc2)C1Nc1ccc([N+](=O)[O-])cc1 (stereo not drawn) [SACC-0121252] | 42.68 | 0.177 | > 25 | 0.177 | > 25 | > 25 | 2.53 | > 25 | 2.53 | 4.83 |  |
| O=C(O)COc1ccc(Br)cc1/C=N/Nc1cccc2cccnc12 [SACC-0126875] | 59.47 | 5.73 | 8.51 | 5.73 | 8.51 | 4.61 | > 25 | 4.61 | > 25 | 7.477 |  |
| O=C(O)COc1ccccn1 [SACC-0126930] |  | < 0.0285 | > 25 |  |  | 0.761 | < 0.0285 |  |  |  | agonist NPA (%) [1]: 133%; validation mark in dose-response assay [2]: *** (molecules which are either off-target or of low activity (<25 μM)) |
| Cc1ccc(C=C2SC(=S)N(NS(=O)(=O)c3ccc(C)cc3)C2=O)cc1 [SACC-0412061] | 48.16 |  |  | 0.978 | 0.509 |  |  | 5.5 | 2.71 | −1.013 | activity type in dose-response assay, in words ([2]; BMLK3 cells): partial antagonists; EC50 [2, 17]: 0.978 µM; IC50 [2, 18]: 0.509 µM; EC50 ([3]; Table 5 analogs, V/O cells): 5.5 µM; IC50 [3, 19]: 2.71 µM |
| Cc1ccc(S(=O)(=O)NN2C(=O)C(=Cc3ccc(F)cc3)SC2=S)cc1 [SACC-0412063] | 0.61 |  |  | 24.2 | 0.627 |  |  | 1.21 | > 25 | 2.277 | activity type in dose-response assay, in words ([2]; BMLK3 cells): very weak partial antagonists; EC50 [2, 17]: 24.2 µM; IC50 [2, 18]: 0.627 µM; EC50 ([3]; Table 5 analogs, V/O cells): 1.21 µM; IC50 [3, 19]: > 25 µM |
